The text below walks through data of patent publication EP1751175B1, “INTERLEUKIN-1 RECEPTOR ANTAGONISTS, COMPOSITIONS, AND METHODS OF TREATMENT” (VALORISATION-RECHERCHE, Société en Commandite, priority 2004, dated 2005).

Where a SMILES comes first, the peptide text is derived from it. Where no end group is shown, it is not given here. [ ]: non-standard residue; d: D form. A value given as a limit tells only on which side of the number the result lay.

In general, IC50 refers to the point on the concentration scale where inhibition reaches its midpoint. Read a low IC50 as inhibition by little substance.

The test system of one assay is rats. In words: TNBS-induced inflammatory bowel disease model in rats, 48 h: MPO activity, macroscopic score, histologic score (Table 3: 1 no injury to 5 marked denudation). The class given is in vivo. As to the method:
Colon inflammation was induced by intra-rectal/colon administration of the hapten trinitrobenzene sulphonic acid (TNBS) as described in Example 4. Two hours prior to TNBS administration, peptides, peptidomimetics or 0.9% saline were administered intravenously (iv) via the caudal vein (various concentrations of mg/kg/d) (total volume of 0.3ml). […] A third group (control) was not injected with TNBS. For intermittent administration, fifteen minutes after TNBS administration, 101.10 (0.25-1 mg/kg), 101.107 (0.2 mg/kg), 101.113 (0.05-1 mg/kg) were administered by intermittent intraperitoneal injection (ip). Also, these IL-1R antagonists were given twice a day (BID); Remicade® (anti-TNFα) (10 mg/kg) and dexamethasone (0.75 mg/kg) were administered intraperitoneally but only once a day (qd). The intrarectal administration (ir) of 101.10, 101.113 (1 and 2.5 mg/kg), and 5-ASA (50 mg/kg) was done one hour after TNBS administration, and twice a day, except for 5-ASA which is once a day. Finally, 101.10 (1-5 mg/kg) was also administered orally by gavage (po), twice a day. Forty-eight hours after administration of TNBS, rats were killed by CO2 inhalation. Colon was removed and assessed macroscopically (adhesions, ulcerations, discoloration and bleeding) and histologically (neutrophil infiltration, epithelial injury, crypt distortion and ulcerations). One to seven animals per group were studied, according to treatments. Myeloperoxidase (MPO) activity was measured on tissue lysates.
TABLE 3: Histological Injury Scoring System

Another assay has as its target T1, TF-1 cells (Homo sapiens, UniProt P14778+Q9NPH3).
T1 sequence (P14778 18-569): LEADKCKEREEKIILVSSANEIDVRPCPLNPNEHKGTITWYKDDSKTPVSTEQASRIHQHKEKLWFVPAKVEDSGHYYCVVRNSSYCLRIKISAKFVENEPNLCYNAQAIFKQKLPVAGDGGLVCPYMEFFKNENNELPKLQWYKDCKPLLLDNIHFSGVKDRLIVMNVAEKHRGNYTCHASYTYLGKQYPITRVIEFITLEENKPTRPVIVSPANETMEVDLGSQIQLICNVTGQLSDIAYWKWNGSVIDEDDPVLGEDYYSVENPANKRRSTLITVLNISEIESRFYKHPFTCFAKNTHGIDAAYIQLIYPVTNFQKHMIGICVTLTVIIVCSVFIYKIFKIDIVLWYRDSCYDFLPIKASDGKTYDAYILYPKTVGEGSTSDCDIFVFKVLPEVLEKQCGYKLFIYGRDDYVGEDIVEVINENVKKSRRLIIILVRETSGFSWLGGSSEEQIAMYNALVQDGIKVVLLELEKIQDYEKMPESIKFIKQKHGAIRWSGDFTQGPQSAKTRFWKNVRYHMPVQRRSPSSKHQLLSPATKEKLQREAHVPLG
T1 sequence (Q9NPH3 21-570): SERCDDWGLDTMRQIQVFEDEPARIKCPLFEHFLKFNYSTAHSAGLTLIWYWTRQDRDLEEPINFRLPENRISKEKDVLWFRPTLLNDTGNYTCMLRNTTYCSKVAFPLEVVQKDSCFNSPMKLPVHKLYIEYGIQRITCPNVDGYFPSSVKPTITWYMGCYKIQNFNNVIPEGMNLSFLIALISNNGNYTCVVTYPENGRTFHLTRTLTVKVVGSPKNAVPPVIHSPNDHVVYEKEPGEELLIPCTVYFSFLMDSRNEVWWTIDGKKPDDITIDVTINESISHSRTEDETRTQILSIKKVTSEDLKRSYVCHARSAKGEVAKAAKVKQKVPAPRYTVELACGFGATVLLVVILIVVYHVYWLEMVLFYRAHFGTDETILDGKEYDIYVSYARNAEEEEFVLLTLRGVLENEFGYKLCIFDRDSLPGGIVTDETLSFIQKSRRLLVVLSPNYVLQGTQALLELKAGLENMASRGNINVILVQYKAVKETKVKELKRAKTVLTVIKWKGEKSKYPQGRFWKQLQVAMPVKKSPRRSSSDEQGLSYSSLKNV
In words: IL-1ß-induced TF-1 proliferation. The assay is classed as cell-based. The following applies: Table 5; for Emax: TF-1.

For a further assay, the system named is piglet pial vessels. Also noted: species or system Yorkshire piglets. As to the method:
Ex vivo vasomotor response on brain vessels was performed as described (Li et al., 1996; Hou et al., 2000; Hou et al., 2001; Hou et al., 2003). Brains were removed from Yorkshire piglets. Slices of cortex exposing the pial vessels were pinned to a wax base of a 20 ml bath containing Krebs buffer (pH 7.4) equilibrated with 95% O2, 5% CO2 and maintained at 37°C. Microvessels were visualized and recorded using a video camera mounted on a dissecting microscope. Vascular diameter was measured using a digital image analyzer. Vascular diameter was recorded before and after topical application of pre-constricting agent, U46619 (10^-7 M). After stabilization of preparation, the ligand (IL-1β, 75 ng/ml) was added until stable vasodilation was detected. Peptides were subsequently added at different concentrations from 10^-10 to 10^-5 M. Reversal of vasodilatation was visualized and measured as previously described (Hou, et al. 2000; Hou et al. 2001; Hou et al. 2003); triplicate measurements were conducted on 2 animals.

For assay [1], the system named is IL-1 ß-induced proliferation and PGE2 synthesis. In words: Structure vs activity summary of Table 4 (proliferation and PGE2 synthesis, not separated). The class given is cell-based. The following applies: Table 4, derivatives of TTI-101.107.
Where [2] appears, read: intrarectal administration, dose 50.0-qd mg/kg/d.
Setting [3] is: intermittent injection (ip), dose 0.75 - qd mg/kg/d.

For `Nc1ccc(O)c(C(=O)O)c1` [5-ASA], in the assay with rats (setting [2]), the “MPO (% of TNBS+Saline)” value is 49 % of TNBS+Saline, the “histologic evaluation (median score)” value is reported as 3.3 and the “macroscopic (median score)” value came out at 1.5.
`CC(C)C[C@@H](NC(=O)[C@@H](CCC(=O)O)NC(=O)[C@H]1CCCN1C(=O)[C@H](NC(=O)[C@@H](Cc1ccc(O)cc1)NC(=O)[C@H](N)CCCNC(=N)N)[C@H](C)O)C(=O)O` [API-101.113, RYTPEL] came in with an Emax on TF-1 cells of 70%.
For the compound `CC(C)C[C@@H](NC(=O)[C@@H](CCC(=O)O)NC(=O)[C@H]1CCCN1C(=O)[C@H](NC(=O)[C@@H](Cc1c[nH]c2ccccc12)NC(=O)[C@H](N)CCCNC(=N)N)[C@H](C)O)C(N)=O` [API-101.128, RWTPEL], the “activity compared with 101.113, in words” value on TF-1 cells is reported as “relatively decreased”.
In turn, `CC(C)[C@@H](NC(=O)[C@@H](CCC(=O)O)NC(=O)[C@H]1CCCN1C(=O)[C@H](NC(=O)[C@@H](Cc1ccc(O)cc1)NC(=O)[C@H](N)CCCNC(=N)N)[C@H](C)O)C(N)=O` [API-101.129, RYTPEV] showed an Emax at TF-1 cells of 50%.
On to `CC(C)C[C@@H](NC(=O)[C@@H](CCC(=O)O)NC(=O)[C@H]1CCCN1C(=O)[C@H](NC(=O)[C@@H](Cc1ccccc1)NC(=O)[C@H](N)CCCNC(=N)N)[C@H](C)O)C(N)=O` [API-101.132, RFTPEL] (HELM PEPTIDE1{[dR].[dF].[dT].[dP].[dE].[dL].[am]}$$$$V2.0; N-terminus and C-terminus assumed), for which, at TF-1 cells, the Emax was 35% and the “activity compared with 101.113, in words” value is “relatively decreased”.
For `CC(C)C[C@@H](NC(=O)[C@@H](CCC(=O)O)NC(=O)[C@H]1CCCN1C(=O)[C@H](NC(=O)[C@@H](Cc1ccc(O)cc1)NC(=O)[C@H](N)CCCNC(N)=O)[C@H](C)O)C(N)=O` [API-101.134, XYTPEL (X=Citrulline)], the Emax at TF-1 cells was determined as 10%.
Same read-out and setting: the same measure for `CC(C)C[C@@H](NC(=O)[C@@H](CCC(=O)O)NC(=O)[C@H]1CCCN1C(=O)[C@H](NC(=O)[C@@H](Cc1ccc(O)cc1)NC(=O)[C@@H](N)CCCNC(=N)N)[C@H](C)O)C(N)=O` [API-101.135, *RYTPEL]: 63%.
`CC(C)C[C@@H](NC(=O)[C@@H](CCC(=O)O)NC(=O)[C@H](NC(=O)[C@H](NC(=O)[C@@H](Cc1ccc(O)cc1)NC(=O)[C@@H](CCCNC(=N)N)NC(=O)[C@H]1CCCN1C(=O)[C@@H](C)N)[C@H](C)O)C(C)C)C(=O)N[C@H](C)C(=O)O` [API-101]: half-maximal inhibition in the assay with piglet pial vessels (IC50) required 182 nM.
For the compound `C[C@@H]1C[C@H]2[C@@H]3CCC4=CC(=O)C=C[C@]4(C)[C@@]3(F)[C@@H](O)C[C@]2(C)[C@@]1(O)C(=O)CO` [Dexamethasone, dexamethasone], in the assay with rats (setting [3]), the “MPO (% of TNBS+Saline)” value was 60 % of TNBS+Saline, the “histologic evaluation (median score)” value was 3 and the “macroscopic (median score)” value came out at 0.87.
Regarding KYTPEL [API-101.133], on TF-1 cells, the “Emax (%)” value is on record as less than 10% and the “activity compared with 101.113, in words” value is given as “little or no activity”.
Regarding RFVPELA [API-101.127], in the assay with TF-1 cells, the “activity compared with 101.113, in words” value was “completely abolished the activity”.
For the compound “XRYTPELA (X=Acetyl) (Ac-[dR][dY][dT][dP][dE][dL][dA]) [API-101.121]”, the “activity of the peptide, in words” value in assay [1] is “completely lost”.
Turning to XYTPEL (X=Ornithine) [API-101.126], at TF-1 cells, the “Emax (%)” value is recorded as 0% and the “activity compared with 101.113, in words” value was “little or no activity”.
